In US7671074B2, “Sulfonylguanidine compounds and pharmaceutical uses thereof” (Gruenenthal GmbH, priority 2000, dated 2010):

Experiments:
[1] = system: male Sprague-Dawley rats with L5/L6 spinal nerve ligatures; test: In vivo experiments according to Chung (spinal nerve ligation, tactile withdrawal threshold); design: species or system rat; conditions: further investigation
Procedure: In male Sprague-Dawley rats spinal nerve ligatures were applied according to Kim and Chung (1992) to the left L5/L6 spinal nerves. At the same time spinal catheters were implanted according to Pogatzki et al. ^6 (2000). 4 to 6 days after the operation the tactile threshold baseline (withdrawal thresholds) was measured on the ipsilateral and contra lateral rear paw by an electronic vonFrey anaesthesiometer (IITC Life Science, USA). […] After the test and baseline measurement, gabapentin and substances according to the invention were administered. The tactile withdrawal thresholds were measured 30 minutes after administration. The results are expressed as ED50 and % maximal possible effect (% MPE; % of the maximal possible effect) on the ipsilateral side, in which the baseline is taken as 0% and the withdrawal threshold of a control group is taken as 100% MPE.

gabapentin binding site = test: Binding assay: displacement of gabapentin from its binding site
Procedure: Gabapentin was used in a binding assay in order to check the binding and affinities of the selected compounds. The affinity of the compounds according to the invention was measured via the displacement of gabapentin from its binding site.

[2] = system: male albino mice (NMRI), formalin-induced nociception; test: Formalin test on mice (second phase); type: in vivo, mouse
Procedure: The investigations to determine the antinociceptive action of the compounds according to the invention were carried out by the formalin test on male albino mice (NMRI, 25-35 g, Iffa Credo, Belgium).
In the formalin test the first (early) phase (0-15 minutes after the formalin injection) and the second (late) phase (15-60 minutes after the formalin injection) differ (D. Dubuisson et al., Pain, Vol. 4, pp. 161-174 (1977)). The early phase, being a direct reaction to the formalin injection, constitutes a model for acute pain, whereas the late phase is regarded as a model for persistent (chronic) pain (T. J. Coderre et al., Pain, Vol. 52, pp. 259-285 (1993)).
The compounds according to the invention were investigated in the second phase of the formalin test in order to obtain information on the effects of substances in chronic/inflammatory pain. By means of a single subcutaneous formalin injection (20 μl, 1% aqueous solution) into the dorsal side of the right-hand rear paw, a nociceptive reaction was induced in unconstrained experimental animals, manifested in a noticeable licking and biting of the affected paw.
The nociceptive behavior for the test period in the second (late) phase of the formalin test was continuously monitored by observing the animals. The pain reaction was quantified by totaling the time in seconds during which the animals continued to lick and bite the affected paw during the investigation period. After injecting substances that have an antinociceptive effect in the formalin test, the aforedescribed behavior pattern of the animals is reduced or possibly even cancelled.
Corresponding to the substance tests, in which the animals had been injected with the test substance before formalin, the control animals were injected with a vehicle, i.e. solvent (e.g. 0.9% NaCl solution) before the formalin injection. […]
Based on the quantification of the pain reaction, the effect of the substance in the formalin test was determined as the change in the control in percentage terms. […]

IC50 (gabapentin binding site; displacement of gabapentin from its binding site): 779 nM | Percent inhibition (gabapentin binding site; inhibition/displacement of gabapentin, concentration 10^−5 μM [sic]): 75%
Compound: N/C(=N\S(=O)(=O)c1ccc(Cl)cc1)NCc1ccccn1 [Example 21, N-{amino-[(pyridin-2-yl-methyl)-amino]-methylene}-4-chlorobenzenesulfonamide]
ED50 ([1]; Rattus norvegicus, read-out:, table title: Analgesia testing in rats according to Chung): 13.3 mg/kg | effect compared with gabapentin ([1]; rats, Chung test, result in words): superior in their effect to gabapentin | effect in the Chung test ([1]; rats, result in words): show an effect | ED50 ([2]; Mus musculus, second (late) phase of the formalin test, read-out: Formalin Test on Mice - ED50): 97 mg/kg | inhibition of the formalin-induced nociception ([2]; result in words): exhibited an inhibition of the formalin-induced nociception
